Reference: patent publication US20220008359A1, “COMBINATION ANTI-CANCER PRODUCTS AND METHODS” (priority 2020, published 2022)
Marks after values point to notes of the source that are not given here.

System: ZR75-1 cells
Assay: Immuno-staining of protein expression and protein phosphorylation, ZR75-1 cells
Format: cell-based
Design: ATM level / P-317 (ULK1) level / Beclin1 level / ATG5 level / HDAC8 level / BIM level: scale not given here
Experimental: ZR75-1 and MCF7 cells were treated with vehicle control, GZ17-6.02, Palbociclib or the drugs combined for 3 hours and for 6 hours. Cells were fixed in place and immuno-staining performed with in house validated antibodies to detect protein expression and protein phosphorylation.

CC(=O)c1c(C)c2cnc(Nc3ccc(N4CCNCC4)cn3)nc2n(C2CCCC2)c1=O [PALBO, Palbociclib]
AKT level (ZR75, 3 h): 100 | AMPKa level (ZR75, 3 h): 100 | ATG5 level (ZR75, 3 h): 107 | ATG13 level (ZR75, 3 h): 101 | ATM level (ZR75, 3 h): 99 | BAK level (ZR75, 3 h): 107 | BAX level (ZR75, 3 h): 106 | BCL-XL level (ZR75, 3 h): 94 | BIM level (ZR75, 3 h): 109 | Beclin1 level (ZR75, 3 h): 112 | CD95 level (ZR75, 3 h): 100 | CHOP level (ZR75, 3 h): 107 | Cyclin D level (ZR75, 3 h): 108 | Cyclin E level (ZR75, 3 h): 103 | ER level (ZR75, 3 h): 100 | ERBB1 level (ZR75, 3 h): 99 | ERBB2 level (ZR75, 3 h): 99 | ERBB3 level (ZR75, 3 h): 100 | ERK1/2 level (ZR75, 3 h): 100 | ERK2 level (ZR75, 3 h): 100 | ERRB4 level (ZR75, 3 h): 100 | FAS-L level (ZR75, 3 h): 108 | GRP78 level (ZR75, 3 h): 108 | HDAC1 level (ZR75, 3 h): 101 | HDAC2 level (ZR75, 3 h): 99 | HDAC3 level (ZR75, 3 h): 96 | HDAC4 level (ZR75, 3 h): 100 | HDAC5 level (ZR75, 3 h): 98 | HDAC6 level (ZR75, 3 h): 99 | HDAC7 level (ZR75, 3 h): 101 | HDAC8 level (ZR75, 3 h): 100 | HDAC9 level (ZR75, 3 h): 101 | HDAC10 level (ZR75, 3 h): 98 | HDAC11 level (ZR75, 3 h): 96 | IDO1 level (ZR75, 3 h): 96 | JAK2 level (ZR75, 3 h): 100 | JNK1/2 level (ZR75, 3 h): 100 | LATS1/2 level (ZR75, 3 h): 98 | MCL1 level (ZR75, 3 h): 96 | MHCA level (ZR75, 3 h): 102 | NEDD4 level (ZR75, 3 h): 100 | NFkB level (ZR75, 3 h): 100 | ODC level (ZR75, 3 h): 100 | P-89 (TAZ) level (ZR75, 3 h): 101 | P-109 (YAP) level (ZR75, 3 h): 101 | P-127 (YAP) level (ZR75, 3 h): 100 | P-317 (ULK1) level (ZR75, 3 h): 112 | P-397 (YAP) level (ZR75, 3 h): 98 | P-757 (ULK1) level (ZR75, 3 h): 96 | P-909 (LATS1/2) level (ZR75, 3 h): 98 | P-1079 (LATS1/2) level (ZR75, 3 h): 101 | P-AMPKa level (ZR75, 3 h): 115# | P-ATG13 level (ZR75, 3 h): 113# | P-ATM level (ZR75, 3 h): 106 | P-ERBB1 level (ZR75, 3 h): 101 | P-ERBB2 level (ZR75, 3 h): 96 | P-ERBB3 level (ZR75, 3 h): 115# | P-ERBB4 level (ZR75, 3 h): 107 | P-ERK level (ZR75, 3 h): 97 | P-JAK2 level (ZR75, 3 h): 100 | P-JNK level (ZR75, 3 h): 90 | P-KIT level (ZR75, 3 h): 100 | P-MET level (ZR75, 3 h): 101 | P-NFkB level (ZR75, 3 h): 100 | P-PDGFRb level (ZR75, 3 h): 100 | P-PERK level (ZR75, 3 h): 111 | P-S2448 (mTOR) level (ZR75, 3 h): 97 | P-S2481 (mTOR) level (ZR75, 3 h): 96 | P-T308 (AKT) level (ZR75, 3 h): 106 | P-Y694 (STAT5) level (ZR75, 3 h): 100 | P-Y705 (STAT3) level (ZR75, 3 h): 99 | P-eIF2a level (ZR75, 3 h): 110 | P-p38 level (ZR75, 3 h): 101 | P-p70 T389 level (ZR75, 3 h): 100 | PD-L1 level (ZR75, 3 h): 100 | PD-L2 level (ZR75, 3 h): 100 | PDGFRb level (ZR75, 3 h): 100 | PERK level (ZR75, 3 h): 101 | PP1 level (ZR75, 3 h): 99 | PTEN level (ZR75, 3 h): 101 | STAT3 level (ZR75, 3 h): 100 | STAT5 level (ZR75, 3 h): 100 | TAZ level (ZR75, 3 h): 100 | ULK1 level (ZR75, 3 h): 100 | Y416 (c-SRC) level (ZR75, 3 h): 101 | Y527 (c-SRC) level (ZR75, 3 h): 99 | YAP level (ZR75, 3 h): 98 | c-KIT level (ZR75, 3 h): 100 | c-MET level (ZR75, 3 h): 100 | c-SRC level (ZR75, 3 h): 101 | eIF2a level (ZR75, 3 h): 99 | mTOR level (ZR75, 3 h): 101 | p38 level (ZR75, 3 h): 100 | p70 S6K level (ZR75, 3 h): 100 | P-ERBB3 level (ZR75, 3 h, listed as Palbo): 115 | AKT level (ZR75, 6 h): 101 | AMPKa level (ZR75, 6 h): 100 | ATG5 level (ZR75, 6 h): 114# | ATG13 level (ZR75, 6 h): 100 | ATM level (ZR75, 6 h): 100 | BAK level (ZR75, 6 h): 109 | BAX level (ZR75, 6 h): 108 | BCL-XL level (ZR75, 6 h): 91 | BIM level (ZR75, 6 h): 113# | Beclin1 level (ZR75, 6 h): 118# | CD95 level (ZR75, 6 h): 101 | CHOP level (ZR75, 6 h): 109 | Cyclin D level (ZR75, 6 h): 107 | Cyclin E level (ZR75, 6 h): 105 | ER level (ZR75, 6 h): 99 | ERBB1 level (ZR75, 6 h): 100 | ERBB2 level (ZR75, 6 h): 100 | ERBB3 level (ZR75, 6 h): 99 | ERK1/2 level (ZR75, 6 h): 100 | ERK2 level (ZR75, 6 h): 99 | ERRB4 level (ZR75, 6 h): 99 | FAS-L level (ZR75, 6 h): 109 | GRP78 level (ZR75, 6 h): 112 | HDAC1 level (ZR75, 6 h): 102 | HDAC2 level (ZR75, 6 h): 95 | HDAC3 level (ZR75, 6 h): 97 | HDAC4 level (ZR75, 6 h): 100 | HDAC5 level (ZR75, 6 h): 101 | HDAC6 level (ZR75, 6 h): 98 | HDAC7 level (ZR75, 6 h): 102 | HDAC8 level (ZR75, 6 h): 99 | HDAC9 level (ZR75, 6 h): 101 | HDAC10 level (ZR75, 6 h): 100 | HDAC11 level (ZR75, 6 h): 100 | IDO1 level (ZR75, 6 h): 100 | JAK2 level (ZR75, 6 h): 100 | JNK1/2 level (ZR75, 6 h): 100 | LATS1/2 level (ZR75, 6 h): 99 | MCL1 level (ZR75, 6 h): 91 | MHCA level (ZR75, 6 h): 103 | NEDD4 level (ZR75, 6 h): 97 | NFkB level (ZR75, 6 h): 101 | ODC level (ZR75, 6 h): 98 | P-89 (TAZ) level (ZR75, 6 h): 101 | P-109 (YAP) level (ZR75, 6 h): 105 | P-127 (YAP) level (ZR75, 6 h): 106 | P-317 (ULK1) level (ZR75, 6 h): 114# | P-397 (YAP) level (ZR75, 6 h): 99 | P-757 (ULK1) level (ZR75, 6 h): 97 | P-909 (LATS1/2) level (ZR75, 6 h): 109 | P-1079 (LATS1/2) level (ZR75, 6 h): 102 | P-AMPKa level (ZR75, 6 h): 117# | P-ATG13 level (ZR75, 6 h): 121# | P-ATM level (ZR75, 6 h): 109 | P-ERBB1 level (ZR75, 6 h): 100 | P-ERBB2 level (ZR75, 6 h): 98 | P-ERBB3 level (ZR75, 6 h): 116# | P-ERBB4 level (ZR75, 6 h): 101 | P-ERK level (ZR75, 6 h): 99 | P-JAK2 level (ZR75, 6 h): 99 | P-JNK level (ZR75, 6 h): 88 | P-KIT level (ZR75, 6 h): 100 | P-MET level (ZR75, 6 h): 99 | P-NFkB level (ZR75, 6 h): 98 | P-PDGFRb level (ZR75, 6 h): 98 | P-PERK level (ZR75, 6 h): 111 | P-S2448 (mTOR) level (ZR75, 6 h): 98 | P-S2481 (mTOR) level (ZR75, 6 h): 98 | P-T308 (AKT) level (ZR75, 6 h): 106 | P-Y694 (STAT5) level (ZR75, 6 h): 99 | P-Y705 (STAT3) level (ZR75, 6 h): 99 | P-eIF2a level (ZR75, 6 h): 109 | P-p38 level (ZR75, 6 h): 100 | P-p70 T389 level (ZR75, 6 h): 101 | PD-L1 level (ZR75, 6 h): 99 | PD-L2 level (ZR75, 6 h): 104 | PDGFRb level (ZR75, 6 h): 100 | PERK level (ZR75, 6 h): 99 | PP1 level (ZR75, 6 h): 99 | PTEN level (ZR75, 6 h): 101 | STAT3 level (ZR75, 6 h): 99 | STAT5 level (ZR75, 6 h): 99 | TAZ level (ZR75, 6 h): 102 | ULK1 level (ZR75, 6 h): 100 | Y416 (c-SRC) level (ZR75, 6 h): 102 | Y527 (c-SRC) level (ZR75, 6 h): 98 | YAP level (ZR75, 6 h): 99 | c-KIT level (ZR75, 6 h): 100 | c-MET level (ZR75, 6 h): 101 | c-SRC level (ZR75, 6 h): 101 | eIF2a level (ZR75, 6 h): 100 | mTOR level (ZR75, 6 h): 100 | p38 level (ZR75, 6 h): 99 | p70 S6K level (ZR75, 6 h): 99 | P-ERBB3 level (ZR75, 6 h, listed as Palbo): 116 | increase in the levels of cyclin D and cyclin E (ZR75 and MCF7, 3 h and 6 h, trend): 5-10%
